One may read the MBC as the smallest concentration meeting the test's criterion for killing. Usually MIC stands for the lowest concentration found to suppress growth. The term IC50 denotes the midpoint of a concentration-inhibition curve. Lower therefore signals greater potency in that assay.

This note sets out measurements from paper PMC6981581, “N-(2-Arylmethylthio-4-Chloro-5-Methylbenzenesulfonyl)amide Derivatives as Potential Antimicrobial Agents—Synthesis and Biological Studies” (International Journal of Molecular Sciences, 2019).

In brackets after ≈: the same amount, converted by molar mass. Like-named read-outs stand apart in the source and are kept apart here. Some results are limits rather than exact numbers.

In test [1] the test system is Gram-positive reference strains. Nature of the test: Broth dilution MIC/MBC, summary over Gram-positive reference strains. Particulars: summary over the Gram-positive reference strains (Table 1). It counts as cell-based. The protocol:
[…]. The tests were carried out using a serial dilution method, allowing the determination of MIC (minimal concentration inhibiting bacterial growth), MBC (minimal bactericidal concentration), and MFC (minimal fungicidal concentration) values.
Antimicrobial activity was tested using the following reference strains: Staphylococcus aureus ATCC 6538 (MSSA), Staphylococcus aureus ATCC 43300 (MRSA), Staphylococcus epidermidis PCM 2118, Escherichia coli ATCC 11229, Pseudomonas aeruginosa ATCC 15442, Proteus vulgaris NCTC 4635, Enterococcus faecalis ATCC 11420, and Candida albicans ATCC 10231.
(§1) A broth dilution method was used to determine minimal inhibitory concentration (MIC) for tested compounds as recommended by Clinical Laboratory Standards Institute (CLSI) guidelines. Investigated compounds were diluted in Mueller Hinton Broth 2 (Sigma-Aldrich Co., St. Louis, MO, USA) in polypropylene 96-well plates and initial inoculum 5 × 10^5 cfu/mL were incubated at 37 °C for 18 h. MIC was taken as the lowest drug concentration at which an observable growth was inhibited. […] The loopful (10 µL) of the tested sample was transferred to Tryptic Soy Agar (TSA, Becton-Dickinson, Franklin Lakes, NJ, USA) and incubated at 37 °C for 48 h. […] Drug Solutions were made fresh on the day of the assay. All experiments were performed in triplicate.
A general note: Dilution methods test growth across graded concentrations, often in twofold steps.

Another test relates to MCF-7 (breast cancer). Nature of the test: MTT cell viability assay. In kind it is cell-based. Particulars: Homo sapiens, MCF7, 72 h incubation, mean ± SD. The protocol:
(§2) Analysis was performed using the MTT test and 72 h of incubation.
(§3) All chemicals were obtained from Sigma-Aldrich (St. Louis, MO, USA). The MCF-7 and HeLa cell lines were purchased from Cell Lines Services (Eppelheim, Germany), the HCT-116 cell line was purchased from ATCC (ATCC-No: CCL-247). Cells were cultured in Dulbecco’s modified Eagle’s medium (DMEM) supplemented with 10% fetal bovine serum, 2 mM glutamine, 100 units/mL penicillin, and 100 μg/mL streptomycin. Cultures were held in an incubator (Heraceus, HeraCell) in a humidified atmosphere with 5% CO2 at 37 °C.
(§4) Cell viability was evaluated using the MTT (3-(4,5-dimethylthiazol-2-yl)-2,5-diphenyltetrazolium bromide) assay. Stock solutions of the studied compounds were obtained in 100% DMSO. […] Cells at a density of 5 × 10^3 cells/well, seeded in 96-well plates, were treated for 72 h with the tested compounds in the concentration range 1–100 μM (1, 10, 25, 50 and 100 μM). After treatment, cells were incubated for 2 h with MTT (0.5 mg/mL) at 37 °C. Cells were lysed with DMSO and the absorbance of the formazan solution was measured at 550 nm with a plate reader (1420 multilabel counter, Victor, Jügesheim, Germany). Values are expressed as the mean ± SD of at least three independent experiments conducted in triplicate.
(In general: Tetrazolium dyes change colour on reduction, which living cells bring about.)

For the next test, the system named is HCT-116 (colon cancer). The test can be described thus: MTT cell viability assay. It counts as cell-based. Particulars: Homo sapiens, 72 h incubation, mean ± SD. The protocol:
as §2, §3, §4

For another test, the system named is HeLa (cervical cancer). Nature of the test: MTT cell viability assay. It counts as cell-based. Particulars: Homo sapiens, 72 h incubation, mean ± SD. The protocol:
as §2, §3, §4

The test system of another test is MSSA 59 biofilm. The test can be described thus: Biofilm inhibition assay (crystal violet). The following applies: MSSA 59, 4 × MIC. In kind it is cell-based, Staphylococcus aureus. The protocol:
(§5) For many decades, S. aureus has been identified as the most common etiologic agent of device related infections, associated with biofilm formation. These infections are hard to cure because the specific structure of biofilm confers resistance to the host immune response and to the action of antibiotics.
(§6) Then, 100 µL bacterial suspension prepared from fresh overnight culture by diluting with TSB to obtain the initial inoculum 2 × 10^6 CFU/mL was added. The plates were incubated for 24 h at 37 °C. After the incubation, the wells were discarded and were gently rinsed three times with PBS to remove planktonic staphylococcal cells. Then, contents of the wells were discarded and the biofilm was fixed with 200 µL methanol for 20 min and dried at room temperature for 30 min. The biofilm was stained by adding 200 µL 1.8% crystal violet solution for 15 min. After staining, the plates were rinsed with water and 200 µL bleaching solution (30% ethanol, 30% glacial acetic acid, 40% water) added for 15 min to dissolve the remaining crystal violet. A microplater reader was used to measure the absorbance of the adherent biofilm at 570 nm (OD570). […] The negative control included only the growth medium.

In another test the test system is MRSA 52 biofilm. The test can be described thus: Biofilm inhibition assay (crystal violet). In kind it is cell-based, Staphylococcus aureus. The following applies: MRSA 52, 4 × MIC. The protocol:
as §5, §6

For the next test, the system named is MRSA 51 biofilm. Nature of the test: Biofilm inhibition assay (crystal violet). Particulars: MRSA 51, 4 × MIC. It counts as cell-based, Staphylococcus aureus. The protocol: as §5, §6
The test system of the next test is MSSA 58 biofilm. The test can be described thus: Biofilm inhibition assay (crystal violet). In kind it is cell-based, Staphylococcus aureus. The protocol:
as §5, §6

In the next test the test system is S.aureus 53 (MRSA). Nature of the test: Broth dilution MIC/MBC, clinical MRSA isolate. It counts as cell-based. The following applies: Staphylococcus aureus, clinical MRSA S.aureus 53.
Text: (§7) […]. Both MRSA and MSSA strains were derived from various human infections.
(§8) […]. Five methicillin-resistant S. aureus strains were isolated from nose (n = 1), bronchoalveolar lavage (n = 1), sputum (n = 1), wound (n = 1), and blood (n = 1); five methicillin-susceptible S. aureus strains were isolated from throat (n = 1), bronchoalveolar lavage (n = 1), sputum (n = 1), abscess (n = 1), and blood (n = 1).
(§9) The identity of S. aureus isolates was confirmed with conventional methods and with Pastorex Staph-Plus latex agglutination kit (Bio-Rad, Marnes-la-Coquette, France) and verified applying the polymerase chain reaction (PCR) of S. aureus-specific region of the thermonuclease gene, nuc. Resistance to methicillin was first verified using cefoxitin disk (30 µg), and then, identified based on the presence of mecA gene. S. aureus ATCC®25923 (methicillin-susceptible) and S. aureus ATCC®43300 (MDR) were applied as the reference strains. Both the reference and clinical strains were stored at −80 °C, in Tryptic Soy Broth (TSB, Becton-Dickinson, Franklin Lakes, NJ, USA) supplemented with 15% glycerol.
as §1

A further test relates to S.aureus 51 (MRSA). The test can be described thus: Broth dilution MIC/MBC, clinical MRSA isolate. In kind it is cell-based. The following applies: Staphylococcus aureus, clinical MRSA S.aureus 51.
Text: as §7, §8, §9, §1

The next test has as its system S.aureus 54 (MRSA). Nature of the test: Broth dilution MIC/MBC, clinical MRSA isolate. It counts as cell-based. Particulars: Staphylococcus aureus, clinical MRSA S.aureus 54.
Text: as §7, §8, §9, §1

Another test concerns S.aureus 52 (MRSA). Nature of the test: Broth dilution MIC/MBC, clinical MRSA isolate. It counts as cell-based. Particulars: Staphylococcus aureus, clinical MRSA S.aureus 52.
Text: as §7, §8, §9, §1

With `Cc1cc(S(=O)(=O)NC(=O)CCC2CCCCC2)c(SCc2cccc(C(F)(F)F)c2)cc1Cl` [Compound 10, N-[4-Chloro-5-methyl-2-(3-trifluoromethylbenzylthio)benzenesulfonyl]-3-cyclohexylpropanamide], the MBC in test [1] is 8 to 64 µg/mL; in test [1] (read-out: MBC) it was 8 to 64 µg/mL (≈ 15 to 120 µM); in the test on S.aureus 53 (MRSA) (read-out: MBC), greater than 128 µg/mL; with S.aureus 51 (MRSA) (read-out: MBC), greater than 128 µg/mL; in the test on S.aureus 54 (MRSA) (read-out: MBC) it was greater than 128 µg/mL; in the test on S.aureus 52 (MRSA) (read-out: MBC), greater than 128 µg/mL. Moreover, the MIC was 8 µg/mL (≈ 15 µM) in [1]; 8 µg/mL (≈ 15 µM) in test [1] (read-out: MIC); 4 µg/mL (≈ 7.49 µM) with S.aureus 53 (MRSA) (read-out: MIC); 4 µg/mL (≈ 7.49 µM) in the test with S.aureus 51 (MRSA) (read-out: MIC); 4 µg/mL (≈ 7.49 µM) in the test on S.aureus 54 (MRSA) (read-out: MIC); 4 µg/mL (≈ 7.49 µM) in the test with S.aureus 52 (MRSA) (read-out: MIC). Further, the IC50 amounted to 81 ± 3 µM in the test with MCF-7 (breast cancer), 78 ± 3 µM with HCT-116 (colon cancer) and 94 ± 3 µM in the test on HeLa (cervical cancer). In addition, the “inhibition of biofilm formation” value is listed as 91% in the test on MSSA 59 biofilm; 88–89% in the test with MRSA 52 biofilm; 88–89% in the test with MRSA 51 biofilm; “about 91%” with MSSA 58 biofilm (MSSA 58, concentration equal to the MIC); 67% with MSSA 58 biofilm (MSSA 58, ½ MIC (2 μg/mL)).
